# Data from paper PMC10343654, “Evaluation of Novel B1R/B2R Agonists Containing TRIOZAN™ Nanoparticles for Targeted Brain Delivery of Antibodies in a Mouse Model of Alzheimer Disease” (Molecules, 2023).
# Square brackets hold non-standard residues; d marks the D form. Peptide text beside a SMILES is read from it. ξ: configuration not given here. Oic = O=C(O)[C@@H]1C[C@@H]2CCCC[C@@H]2N1; d2Nal = N[C@H](Cc1ccc2ccccc2c1)C(=O)O; Hyp = O=C(O)[C@@H]1C[C@@H](O)CN1; 2Thi = N[C@@H](Cc1cccs1)C(=O)O; Gly(N-cHex) = O=C(O)CNC1CCCCC1; ξαMeF = CC(N)(Cc1ccccc1)C(=O)O; Orn = NCCC[C@H](N)C(=O)O; βAla = NCCC(=O)O; Mpa = O=C(O)CCS
# T1: human kinin B2R (Homo sapiens, UniProt P30411)
# T1 construct: expressed in transfected cells
# T1 sequence (P30411 1-391): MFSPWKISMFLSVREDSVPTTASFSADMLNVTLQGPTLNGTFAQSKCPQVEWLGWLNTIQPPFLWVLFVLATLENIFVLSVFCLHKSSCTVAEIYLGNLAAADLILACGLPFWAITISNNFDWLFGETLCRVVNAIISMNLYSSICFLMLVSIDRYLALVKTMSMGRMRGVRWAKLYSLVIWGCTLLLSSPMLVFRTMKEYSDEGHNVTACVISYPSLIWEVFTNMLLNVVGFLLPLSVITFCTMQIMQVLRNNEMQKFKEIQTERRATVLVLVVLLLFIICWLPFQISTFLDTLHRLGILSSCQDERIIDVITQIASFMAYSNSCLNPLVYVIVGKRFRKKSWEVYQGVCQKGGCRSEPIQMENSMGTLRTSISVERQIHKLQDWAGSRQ
# T2: human kinin B1R (Homo sapiens, UniProt P46663)
# T2 construct: expressed in transfected cells
# T2 sequence (P46663 1-353): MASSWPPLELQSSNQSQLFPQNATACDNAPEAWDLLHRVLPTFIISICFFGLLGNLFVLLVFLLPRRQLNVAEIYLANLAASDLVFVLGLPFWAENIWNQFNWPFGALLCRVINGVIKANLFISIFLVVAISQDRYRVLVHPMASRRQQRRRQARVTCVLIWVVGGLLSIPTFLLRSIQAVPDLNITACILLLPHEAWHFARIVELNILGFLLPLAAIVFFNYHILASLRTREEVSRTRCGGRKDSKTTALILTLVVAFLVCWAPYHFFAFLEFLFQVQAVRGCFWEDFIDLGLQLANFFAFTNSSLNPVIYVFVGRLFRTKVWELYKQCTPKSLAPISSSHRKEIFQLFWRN
# B1: ANX-005: C1q function blocking humanized IgG4 mAb (Annexon Biosciences) (antibody, chains of the INN, looked up, V domains shown)
# VH: QVQLVQSGAELKKPGASVKVSCKSSGYHFTSYWMHWVKQAPGQGLEWIGVIHPNSGSINYNEKFESRVTITVDKSTSTAYMELSSLRSEDTAVYYCAGERDSTEVLPMDYWGQGTTVTVSS
# VL: DVQITQSPSSLSASLGERATINCRASKSINKYLAWYQQKPGKAPKLLIYSGSTLQSGIPARFSGSGSGTDFTLTISSLEPEDFAMYYCQQHNEYPLTFGQGTKLEIK
# Legend:
# [1] = molecular target: T1, human kinin B2R; assay: Competition binding assay on HEK293 cells stably expressing human kinin B2R, radioligand [3H]BK; settings: displacement of [3H]BK, read-out: hB2R IC50
# Procedure: (§1) Competition binding assays were carried out essentially as described previously. Briefly, HEK293 cells stably expressing either human kinin B1R or B2R were grown in 24-well plates and incubated with 4 nM [^3H]Lys[[…]]desArg^9BK (for B1R) or with 1 nM [^3H]BK/well (for B2R) in serum-free DMEM for 1-2 h in the absence or presence of increasing concentrations of competitors ([…]-10^-5 M for peptides; 10^-10-10^-4 g/mL for peptides-coupled NPs). Radioactivity of samples was measured by a β-scintillation counter (PerkinElmer, Woodbridge, ON, Canada). Binding affinities of compounds were expressed in terms of IC50 values-the concentrations of competing compounds (i.e., free peptides, TMC-peptides conjugates and peptides coupled to NPs) causing 50% displacement of specific binding of the radioligand. Data are means of 2-3 independent experiments.
# [2] = molecular target: T2, human kinin B1R; assay: Competition binding assay on HEK293 cells stably expressing human kinin B1R, radioligand [3H]Lys[Leu8]desArg9BK; settings: displacement of radioligand, read-out: hB1R IC50
# Procedure: as §1
# [3] = parameters: method as in PMID 30837797; settings: in rodents; cited from earlier work
Molecule,IC50 [1],IC50 [2],half-life (t½) [3]
"N=C(N)NCCC[C@H](NC(=O)[C@H](Cc1cccs1)NC(=O)CN(C(=O)[C@H](CO)NC(=O)[C@H](Cc1cccs1)NC(=O)CNC(=O)[C@@H]1C[C@@H](O)CN1C(=O)[C@@H]1CCCN1C(=O)[C@H](CCCNC(=N)N)NC(=O)CCNC(=O)CCS)C1CCCCC1)C(=O)O [MAB7053, Mpa-βAla-Arg-Pro-Hyp-Gly-Thi-Ser-^NChg-Thi-Arg-OH] ([Mpa][βAla]RP[Hyp]G[2Thi]S[Gly(N-cHex)][2Thi]R-OH)",1.18 µM,,
"N=C(N)NCCC[C@H](NC(=O)[C@H](CCCCN)NC(=O)CCNC(=O)CCS)C(=O)N1CCC[C@H]1C(=O)N1CCC[C@H]1C(=O)NCC(=O)N[C@@H](Cc1ccccc1)C(=O)N[C@@H](CO)C(=O)N1CCC[C@H]1C(=O)N[C@H](Cc1ccccc1)C(=O)O [MAB7108, Mpa-βAla-Lys-Arg-Pro-Pro-Gly-Phe-Ser-Pro-DPhe-OH]",,0.0008 µM,
"CC[C@H](C)[C@H](NC(=O)[C@@H](Cc1ccc2ccccc2c1)NC(=O)[C@H](CO)NC(=O)C(C)(Cc1ccccc1)NC(=O)CNC(=O)[C@@H]1CCCN1C(=O)[C@@H]1C[C@@H]2CCCC[C@@H]2N1C(=O)[C@H](CCCNC(=N)N)NC(=O)[C@H](CCCN)NC(=O)CCNC(=O)CCS)C(=O)O (stereo partly drawn) [MAB7122, Mpa-βAla-Orn-Arg-Oic-Pro-Gly-(αMe)Phe-Ser-DβNal-Ile-OH] ([Mpa][βAla][Orn]R[Oic]PG[ξαMeF]S[d2Nal]I-OH)",,0.01 µM,
"CNCC(=O)N[C@@H](CCCCN)C(=O)N[C@@H](CCCNC(=N)N)C(=O)N1CCC[C@H]1C(=O)N1CCC[C@H]1C(=O)NCC(=O)N[C@@H](Cc1ccccc1)C(=O)N[C@@H](CO)C(=O)N1CCC[C@H]1C(=O)N[C@H](Cc1ccccc1)C(=O)O [NG29, Sar-Lys-Arg-Pro-Pro-Gly-Phe-Ser-Pro-DPhe-OH]",> 10 µM,0.0005 µM,
"N=C(N)NCCC[C@H](NC(=O)[C@H](Cc1cccs1)NC(=O)CN(C(=O)[C@H](CO)NC(=O)[C@H](Cc1cccs1)NC(=O)CNC(=O)[C@@H]1C[C@@H](O)CN1C(=O)[C@@H]1CCCN1C(=O)[C@@H](N)CCCNC(=N)N)C1CCCCC1)C(=O)O [NG291, H-Arg-Pro-Hyp-Gly-Thi-Ser-^NChg-Thi-Arg-OH] (H-RP[Hyp]G[2Thi]S[Gly(N-cHex)][2Thi]R-OH)",0.002 µM,> 10 µM,
"CC[C@H](C)[C@H](NC(=O)[C@@H](Cc1ccc2ccccc2c1)NC(=O)[C@H](CO)NC(=O)C(C)(Cc1ccccc1)NC(=O)CNC(=O)[C@@H]1CCCN1C(=O)[C@@H]1C[C@@H]2CCCC[C@@H]2N1C(=O)[C@H](CCCNC(=N)N)NC(=O)[C@H](CCCN)NC(C)=O)C(=O)O (stereo partly drawn) [R954, AcOrn-Arg-Oic-Pro-Gly-(αMe)Phe-Ser-DβNal-Ile-OH] (Ac-[Orn]R[Oic]PG[ξαMeF]S[d2Nal]I-OH)",> 10 µM,0.002 µM,
"TRIOZAN™-MAB7053: TRIOZAN (trimethyl chitosan) conjugated with 7 equivalents of B2R agonist peptide MAB7053 (RPPGXSXXR; Residue 3 is Hyp (trans-4-hydroxy-L-Pro); residues 5 and 8 are Thi (alpha-(2-thienyl)-L-Ala); residue 7 is N-cyclohexyl-Gly; free C-terminal acid; N-terminal Mpa-betaAla spacer, thioether-linked via M)",10.6 µM,,
B1,,,~ 18 h
